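Assay format: 96-well plates, 48-hour exposure. Here, GI50 denotes the concentration required for 50% inhibition of growth. TGI marks complete inhibition of growth.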
What was measured:
Assay in all cases: NCI-60 cell line screen, 48 h
[1] = system: HS 578T breast
[2] = system: COLO 205 colon
[3] = system: MOLT-4 leukemia
[4] = system: UACC-62 melanoma
[5] = system: A549 NSCLC
[6] = system: NCI/ADR-RES ovarian
[7] = system: SK-OV-3 ovarian
[8] = system: RXF 393 renal
[9] = system: MALME-3M melanoma
[10] = system: IGROV1 ovarian
[11] = system: MDA-MB-435
[12] = system: NCI-H226 lung
[13] = system: OVCAR-5 ovarian
[14] = system: HCT-116 colon
[15] = system: EKVX NSCLC
[16] = system: SR leukemia
[17] = system: SK-MEL-28 melanoma
[18] = system: SF-268 CNS
[19] = system: KM12 colon
[20] = system: SNB-75 CNS
[21] = system: SF-295 CNS
[22] = system: HCT-15 colon
[23] = system: HL-60(TB) leukemia
[24] = system: SF-539 CNS
[25] = system: MDA-MB-231 breast
[26] = system: MCF7 breast
[27] = system: SW-620 colon
[28] = system: CCRF-CEM leukemia
[29] = system: OVCAR-3 ovarian
[30] = system: A498 renal
[31] = system: HOP-62 NSCLC
[32] = system: UACC-257 melanoma
[33] = system: UO-31 renal
[34] = system: HCC-2998 colon
[35] = system: HOP-92 NSCLC
[36] = system: HT29 colon
[37] = system: DU-145 prostate
[38] = system: NCI-H460 lung
[39] = system: K-562 leukemia
[40] = system: LOX IMVI melanoma
[41] = system: MDA-N
[42] = system: T-47D breast
[43] = system: TK-10 renal
[44] = system: BT-549 breast
[45] = system: NCI-H522 lung
[46] = system: M14 melanoma
[47] = system: PC-3 prostate
[48] = system: CAKI-1 renal
[49] = system: ACHN renal
[50] = system: RPMI-8226 leukemia
[51] = system: SK-MEL-2 melanoma
[52] = system: OVCAR-4 ovarian
[53] = system: 786-0 renal
[54] = system: NCI-H23 lung
[55] = system: SK-MEL-5 melanoma
[56] = system: OVCAR-8 ovarian
[57] = system: U251 CNS
[58] = system: SNB-19 CNS
[59] = system: SN12C renal
[60] = system: HOP-18 NSCLC
[61] = system: KM20L2 colon
[62] = system: DMS 273 small cell lung
[63] = system: DLD-1 colon
[64] = system: M19-MEL melanoma
[65] = system: LXFL 529 NSCLC
[66] = system: DMS 114 small cell lung
[67] = system: SNB-78 CNS
[68] = system: XF 498 CNS

Work on `O=C1C=CC2C3C(=O)N(c4ccccc4)C(=O)C3C1N2Cc1ccccc1` (centres undefined) yielded a TGI [1] of 13.9 µM, a TGI [2] of 5.37 µM and a GI50 [3] of 1.72 µM. It also gave a TGI [3] of 5.42 µM, a GI50 [4] of 2.01 µM and a TGI [4] of 6.19 µM. The GI50 [5] was 14.9 µM, the TGI [5] was 29.7 µM and the GI50 [6] was 2.55 µM. It also gave a TGI [6] of 8.75 µM, a GI50 [7] of 13.2 µM and a TGI [7] of 26.1 µM. The GI50 [8] was 2.42 µM, the TGI [8] was 6.53 µM and the GI50 [9] was 4.62 µM. It also gave a TGI [9] of 9.43 µM, a GI50 [10] of 4.81 µM and a TGI [10] of 12.3 µM. The GI50 [11] was 2.72 µM, the TGI [11] was 8.05 µM and the TGI [12] was 13.8 µM. The GI50 [13] was 6.74 µM, the TGI [13] was 19.3 µM and the GI50 [14] was 1.56 µM. For the same compound, the TGI [14] was 3.27 µM, the GI50 [15] was 7.78 µM and the TGI [15] was 23.6 µM. For the same compound, the GI50 [16] was 1.87 µM, the TGI [16] was 7 µM and the GI50 [17] was 3.02 µM. The TGI [17] was 11.3 µM, the GI50 [18] was 3.34 µM and the TGI [18] was 8.85 µM. It also gave a GI50 [19] of 2.56 µM, a TGI [19] of 7.43 µM and a GI50 [20] of 4.19 µM. For the same compound, the TGI [20] was 15.7 µM, the GI50 [21] was 6.41 µM and the TGI [21] was 15.4 µM. It also gave a GI50 [22] of 1.74 µM, a TGI [22] of 3.89 µM and a GI50 [23] of 1.17 µM. For the same compound, the TGI [23] was 8.79 µM, the GI50 [24] was 1.66 µM and the TGI [24] was 3.81 µM. The GI50 [25] was 5.44 µM, the TGI [25] was 20.1 µM and the GI50 [26] was 3.19 µM. It also gave a TGI [26] of 11.5 µM, a GI50 [27] of 1.93 µM and a TGI [27] of 4.32 µM. For the same compound, the GI50 [28] was 0.942 µM, the TGI [28] was 4.12 µM and the GI50 [29] was 3.45 µM. The TGI [29] was 11.3 µM, the GI50 [30] was 8.57 µM and the TGI [30] was 22.8 µM. For the same compound, the TGI [31] was 5.26 µM, the GI50 [32] was 3.22 µM and the TGI [32] was 8.67 µM. For the same compound, the GI50 [33] was 3.42 µM, the TGI [33] was 6.79 µM and the GI50 [34] was 7.95 µM. It also gave a TGI [34] of 18.7 µM, a GI50 [35] of 3.66 µM and a TGI [35] of 9.75 µM. The GI50 [36] was 2.07 µM, the TGI [36] was 4.47 µM and the GI50 [37] was 9.65 µM. For the same compound, the TGI [37] was 22.4 µM, the GI50 [38] was 3.49 µM and the TGI [38] was 9.01 µM. For the same compound, the GI50 [39] was 1.67 µM, the TGI [39] was 6.55 µM and the GI50 [40] was 1.61 µM. The TGI [40] was 3.13 µM, the GI50 [41] was 3.14 µM and the TGI [41] was 10.9 µM. It also gave a GI50 [42] of 4.93 µM, a TGI [42] of 18.2 µM and a GI50 [43] of 8.08 µM. For the same compound, the TGI [43] was 18.8 µM, the GI50 [44] was 3.45 µM and the TGI [44] was 8.87 µM. It also gave a GI50 [45] of 2.68 µM, a TGI [45] of 7.64 µM and a GI50 [46] of 2.6 µM. For the same compound, the TGI [46] was 7.12 µM, the GI50 [47] was 4.67 µM and the TGI [47] was 13 µM. It also gave a GI50 [48] of 4.1 µM, a TGI [48] of 8.15 µM and a GI50 [49] of 3.36 µM. For the same compound, the TGI [49] was 7.61 µM, the GI50 [50] was 1.59 µM and the TGI [50] was 5.18 µM. It also gave a GI50 [51] of 4.37 µM, a TGI [51] of 9.29 µM and a GI50 [52] of 5.54 µM. The TGI [52] was 17.7 µM, the GI50 [53] was 1.69 µM and the TGI [53] was 3.62 µM. For the same compound, the GI50 [54] was 5.37 µM, the TGI [54] was greater than 48.3 µM and the GI50 [55] was 3.57 µM. For the same compound, the TGI [55] was 6.88 µM, the GI50 [56] was 2.88 µM and the TGI [56] was 10.1 µM. It also gave a GI50 [57] of 2.29 µM, a TGI [57] of 11.8 µM and a GI50 [58] of 6.04 µM. The TGI [58] was 13.2 µM, the GI50 [59] was 1.64 µM and the TGI [59] was 3.43 µM.

For `O=C(Nc1ccc(Br)cc1)C(=O)C(C(=O)c1ccc(Cl)c(Cl)c1)C1OC(=O)c2ccccc21` (centres undefined), the TGI [60] was 77 µM, the TGI [2] was 34.8 µM and the TGI [3] was greater than 100 µM. The TGI [4] was 26.4 µM, the TGI [5] was 46 µM and the TGI [7] was greater than 100 µM. It also gave a TGI [8] of 17.9 µM, a TGI [9] of 24.1 µM and a TGI [10] of 42.8 µM. The TGI [12] was 20.6 µM, the TGI [13] was 52.3 µM and the TGI [14] was 25.9 µM. The TGI [15] was greater than 100 µM, the TGI [16] was greater than 100 µM and the TGI [17] was 29.2 µM. For the same compound, the TGI [18] was 21.4 µM, the TGI [19] was 31.8 µM and the TGI [20] was 65.9 µM. The TGI [21] was 65.3 µM, the TGI [22] was 53.7 µM and the TGI [23] was greater than 100 µM. The TGI [61] was greater than 100 µM, the TGI [27] was 38.4 µM and the TGI [28] was greater than 100 µM. It also gave a TGI [29] of 67.3 µM, a TGI [30] of 33.9 µM and a TGI [31] of 32.5 µM. The TGI [32] was 38.9 µM, the TGI [62] was 60 µM and the TGI [63] was 39.6 µM. It also gave a TGI [64] of 31.1 µM, a TGI [65] of 23.2 µM and a TGI [33] of 43.2 µM. The TGI [34] was 29.2 µM, the TGI [35] was 58.4 µM and the TGI [66] was 28.6 µM. It also gave a TGI [36] of 45 µM, a TGI [67] greater than 100 µM and a TGI [38] of 38.2 µM. For the same compound, the TGI [39] was greater than 100 µM, the TGI [40] was 47 µM and the TGI [43] was 51.6 µM. For the same compound, the TGI [45] was 47.9 µM, the TGI [46] was 31.9 µM and the TGI [48] was 51.3 µM. It also gave a TGI [49] of 35.5 µM, a TGI [50] greater than 100 µM and a TGI [52] of 50.5 µM. The TGI [53] was 30.9 µM, the TGI [54] was 29.3 µM and the TGI [68] was 96.2 µM. For the same compound, the TGI [56] was 32.3 µM, the TGI [57] was 22.8 µM and the TGI [58] was 97.8 µM. For the same compound, the TGI [59] was 68.3 µM.

— PubChem BioAssay (NCI)
